Read-outs that look alike come from different tables or passages of the source.

The target of this assay is C2 domain of PKCα (Homo sapiens, UniProt P17252). In words: SPR equilibrium binding of PKCα-C2 to lipid vesicles containing PA derivatives.

For the compound `CCCCCCCC/C=C\CCCCCCCC(=O)O[C@H](COC(=O)CCCCCCCCCCCCCCC)COP(=O)(O)O` [POPA, 1-palmitoyl-2-oleoyl-sn-glycero-3-phosphatidic acid], the dissociation constant Kd (commonly a measure of binding affinity in units of concentration) came to 440 ± 50 nM (read-out: Kd (dissociation constant for binding of PKCα-C2 to vesicles containing PA derivative), POPC:POPE:PA (40:40:20) vesicles, 20 mol% PA, L1 chip, 25°C, 25 mM Tris HCl pH 7.4, 150 mM NaCl, 1 mM CaCl2, 1 mM DTT) and 490 ± 90 nM (read-out: Kd (dissociation constant for binding of PKCα-C2 to vesicles containing PA derivative), POPC:POPE:PA (55:40:5) vesicles, 5 mol% PA, L1 chip, 25°C, 25 mM Tris HCl pH 7.4, 150 mM NaCl, 1 mM CaCl2, 1 mM DTT).

Source of the values: article PMC5985520 (Molecular bioSystems, 2009).
